In US20250177558A1, “Functionalized Nanoclusters and Their Use in Treating Bacterial Infections” (priority 2022, published 2025):
“Also recorded” adds a separate entry of the source. Like-named read-outs stand apart in the source and are kept apart here.

Legend:
[1] = tested on: Ofloxacin-induced persister cells of P. aeruginosa (PA14); test: Bactericidal activity against persister cells; format: cell-based, Pseudomonas aeruginosa; settings: ATP up to 10 mM, persister cells 10^8 CFU/ml
Protocol: Therefore, the 48-h-old-stationary phase was treated with Ofloxacin for 24 h to eradicate non-persister cells (FIG. 5A). Ofloxacin was used at 415 µM, corresponding to 30-fold the MIC for the PAO1 wild-type strain. The surviving persister cells were concentrated and redispersed in phosphate-buffered saline (PBS) to prevent persister cells from awakening from their metabolically repressed state.
Persister cells of the P. aeruginosa (PA14) were isolated by treating 250 ml of stationary phase cultures with Ofloxacin (415 µM final concentration). After 24 h treatment, the samples were washed with PBS, and then persister cells were concentred in 10 ml of PBS. The number of persister cells was estimated by serially diluting to determine the colony-forming unit per millilitre (CFU/ml).
All the bactericidal tests were performed on PBS without a carbon source to prevent persister cells from waking up from their low metabolic activity. Ofloxacin-induced persister cells were challenged with antimicrobial agents at the concentrations listed in the text. After the survival bacteria were washed 3× with PBS, the pellet was resuspended in 100 μL of PBS and then spread on an LB plate. The plate was incubated for 72 h at 37° C. before assessing growth.

[2] = tested on: PAO1Cip21; test: Disc diffusion susceptibility (cross-resistance); format: cell-based, Pseudomonas aeruginosa; settings: isolate after 21 passages in subinhibitory Ciprofloxacin; 5 μg discs
Protocol: In brief, glycerol stocks of each bacteria were streaked on LB plates and grown overnight at 37° C. An inoculum was prepared by diluting several individual colonies in PBS with a 0.5 McFarland Standard turbidity. The inoculum was then spread with sterile cotton swabs on Mueller Hinton agar plates supplemented with 5% sheep blood. Discs containing 5 μg of antipseudomonal drugs were dispensed on the surface of the plate. After 24 h incubation at 37° C., the inhibition zone was measured using a digital calliper.

[3] = tested on: Acinetobacter baumannii (A. baumannii); settings: ref [69], cited from earlier work
[4] = tested on: P. aeruginosa (PAO1); format: cell-based, Pseudomonas aeruginosa; settings: 21 passages in sub-MIC dosing; MIC at passage n/initial MIC
Protocol: The fold change in minimum inhibitory concentration (MIC) was measured as the ratio between the MIC at passage n/initial MIC.
To test this idea, we repeated our serial passaging study with two biologically independent cultures of PAO1.
Serial passage MICs were performed in 96-well microtiter panels. First, an aliquot of the well with the highest concentration permitting growth was taken and back diluted ( 1/100) in new media from inoculated microtiter panels. […] Panels were incubated according to CLSI guidelines, MICs were recorded, and the next inoculum was prepared from the well containing the highest drug concentration that identically allowed growth as described above. Twenty-one repeat passages were performed.

[5] = tested on: stationary phase culture of P. aeruginosa (PA14); test: Intracellular reactive oxygen species (DCFH-DA); format: cell-based, Pseudomonas aeruginosa; settings: relative to PBS-treated group
Protocol: FIGS. 12A-12B. […] (FIG. 12A) Schematic showing how intracellular ROS was determined using the fluorescent probe 2′,7′-dichlorofluorescein diacetate (DCFH-DA).
Cumulatively, the data in this section support that after transiting through OM, AuNC@ATP leads to the fusion of the inner leaflet of OM with the outer leaflet of the cytoplasmic membrane, which leads to bacteria death without cell lysis.
DCFH-DA (2′,7′-dichlorofluorescein diacetate) dye was applied to test the intracellular ROS concentration, which could be cleaved by the intracellular non-specific esterase into the DCFH. DCFH, in the presence of ROS, would be further oxidized into fluorescent DCF (2′,7′-dichlorofluorescein). DCFH-DA in DMSO (10 μM) was added to the treated bacterial solution and further incubated at 37° C., 200 rpm for 15 min. After that, the bacterial cells were centrifuged at 8000 g for 5 min, washed three times with PBS, and resuspended in ultrapure water to the original volume (1 mL). The microplate reader was used to measure the concentration of the produced DCF at the excitation/emission wavelength of 488/525 nm. In this experiment, the fluorescence intensity of DCF directly reflects the amount of ROS generation. […] Finally, the relative ROS production level was calculated by normalizing the ROS level from the treated groups with the production level of the PBS-treated group.

[6] = tested on: stationary phase culture of gram-negative bacteria; settings: conventional antibiotics, refs [54-56]; cited from earlier work
[7] = single injection, mice, ref [79], cited from earlier work

Nc1ncnc2c1ncn2[C@@H]1O[C@H](COP(=O)(O)OP(=O)(O)OP(=O)(O)O)[C@@H](O)[C@H]1O [ATP, adenosine triphosphate]
eradication of persister cells by ATP ligand alone [1]: No eradication was observed; also recorded: did not show bactericidal activity

NCC[C@H](O)C(=O)N[C@@H]1C[C@H](N)[C@@H](O[C@H]2O[C@H](CN)[C@@H](O)[C@H](O)[C@H]2O)[C@H](O)[C@H]1O[C@H]1O[C@H](CO)[C@@H](O)[C@H](N)[C@H]1O [Amikacin]
inhibition zone diameter compared to the ancestor PAO1 [2]: decrease in inhibition zone diameter
persister cells formed by A. baumannii in the presence of antibiotic [3]: 0.07%

CO/N=C(\C(=O)N[C@@H]1C(=O)N2C(C(=O)[O-])=C(C[N+]3(C)CCCC3)CS[C@H]12)c1csc(N)n1 [Cefepime]
inhibition zone diameter compared to the ancestor PAO1 [2]: decrease in inhibition zone diameter

CC(C)(O/N=C(\C(=O)N[C@@H]1C(=O)N2C(C(=O)[O-])=C(C[n+]3ccccc3)CS[C@H]12)c1csc(N)n1)C(=O)O [Ceftazidime]
inhibition zone diameter compared to the ancestor PAO1 [2]: decrease in inhibition zone diameter

O=C(O)c1cn(C2CC2)c2cc(N3CCNCC3)c(F)cc2c1=O [Ciprofloxacin]
resistance development: increase in MIC [4]: more than 250 fold

C[C@@H](O)[C@H]1C(=O)N2C(C(=O)O)=C(S[C@@H]3CN[C@H](C(=O)N(C)C)C3)[C@H](C)[C@H]12 [Meropenem]
inhibition zone diameter compared to the ancestor PAO1 [2]: decrease in inhibition zone diameter

CC1COc2c(N3CCN(C)CC3)c(F)cc3c(=O)c(C(=O)O)cn1c23 (centres unmarked) [Ofloxacin]
ROS production [5]: 1.2 fold-change
resistance development: increase in MIC [4]: > 1500 fold

Cn1c2cccc(=O)c-2nc2ccccc21 [PYO, pyocyanin]
increase of persister cells in the presence of PYO ([3]; with amikacin): 4 fold
increase of persister cells in the presence of PYO ([3]; with carbenicillin): 3 fold

NC[C@H]1O[C@H](O[C@H]2[C@H](O)[C@@H](O[C@H]3O[C@H](CO)[C@@H](O)[C@H](N)[C@H]3O)[C@H](N)C[C@@H]2N)[C@H](N)C[C@@H]1O [Tobramycin]
resistance development: increase in MIC [4]: more than 30 fold
inhibition zone diameter compared to the ancestor PAO1 [2]: decrease in inhibition zone diameter

C[C@H]1[C@H](NC(=O)/C(=N\OC(C)(C)C(=O)O)c2csc(N)n2)C(=O)N1S(=O)(=O)O [aztreonam]
inhibition zone diameter compared to the ancestor PAO1 [2]: decrease in inhibition zone diameter

CC1(C)S[C@@H]2[C@H](NC(=O)C(C(=O)O)c3ccccc3)C(=O)N2[C@H]1C(=O)O (some centres unmarked) [carbenicillin]
persister cells formed by A. baumannii in the presence of antibiotic [3]: 0.02%

Colistin
inhibition zone diameter compared to the ancestor PAO1 [2]: decrease in inhibition zone diameter
cell lysis [6]: cause bacteria cell lysis

Polymyxin-B
inhibition zone diameter compared to the ancestor PAO1 [2]: decrease in inhibition zone diameter

tobramycin sulphate
LD50 ([7]; IP): 262 mg/kg
LD50 ([7]; IV): 77 mg/kg
